Several values for one entry are separate records, joined by “and”; a condition that tells them apart may be missing. Identical values can stand only once.
What was measured:
[1] = target: T1, acetylcholinesterase enzyme (Electrophorus electricus, UniProt O42275); assay: Inhibition of acetylcholinesterase by chlorpyrifos oxon in the Example 1 sensor (graphite; PEDOT layer with PVA layer, d1); conditions: Example 1 sensor (d1), 100 mV
[2] = target: T1, acetylcholinesterase enzyme; assay: Inhibition of acetylcholinesterase by chlorpyrifos oxon in the Example 2 sensor (graphite; PEDOT and PVA conductive gel, d2); conditions: Example 2 sensor (d2), 100 mV
[3] = target: T1, acetylcholinesterase enzyme; assay: Inhibition of acetylcholinesterase by chlorpyrifos oxon in the Example 4 sensor (silver intermediate layer; graphite; PEDOT layer with PVA layer, d1); conditions: Example 4 sensor (silver + d1), 100 mV
[4] = target: T1, acetylcholinesterase enzyme; assay: Inhibition of acetylcholinesterase by chlorpyrifos oxon in the Example 3 sensor (graphite; cobalt phthalocyanine intermediate layer; PEDOT and PVA, d2); conditions: Example 3 sensor (CoPh + d2), 100 mV

T1 sequence (O42275 24-633): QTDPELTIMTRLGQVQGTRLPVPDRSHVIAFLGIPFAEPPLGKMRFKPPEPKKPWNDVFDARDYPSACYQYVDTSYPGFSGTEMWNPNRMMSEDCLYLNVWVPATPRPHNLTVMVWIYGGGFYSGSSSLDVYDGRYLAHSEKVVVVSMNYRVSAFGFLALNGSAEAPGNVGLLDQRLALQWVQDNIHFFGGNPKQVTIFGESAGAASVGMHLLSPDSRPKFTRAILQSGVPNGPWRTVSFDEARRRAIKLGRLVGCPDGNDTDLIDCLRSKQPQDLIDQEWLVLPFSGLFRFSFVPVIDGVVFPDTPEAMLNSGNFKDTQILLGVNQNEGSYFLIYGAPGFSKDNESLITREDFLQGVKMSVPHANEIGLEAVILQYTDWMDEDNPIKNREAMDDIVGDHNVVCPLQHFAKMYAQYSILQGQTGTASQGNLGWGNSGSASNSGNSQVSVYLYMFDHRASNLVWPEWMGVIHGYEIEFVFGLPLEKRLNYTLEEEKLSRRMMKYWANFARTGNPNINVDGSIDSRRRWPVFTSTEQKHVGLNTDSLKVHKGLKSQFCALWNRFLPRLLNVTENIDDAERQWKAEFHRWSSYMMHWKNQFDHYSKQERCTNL

Substance: chlorpyrifos oxon
- % of inhibition in the presence of pesticide ([1]; chlorpyrifos oxon 1 · 10^−9 M): 46.82%
- % of inhibition in the presence of pesticide ([1]; chlorpyrifos oxon 2 · 10^−10 M): 7% and 7.21%
- % of inhibition in the presence of pesticide ([1]; chlorpyrifos oxon 3 · 10^−9 M): 69.20%
- % of inhibition in the presence of pesticide ([1]; chlorpyrifos oxon 3 · 10^−10 M): 16.11%
- % of inhibition in the presence of pesticide ([1]; chlorpyrifos oxon 4 · 10^−10 M): 22.41%
- % of inhibition in the presence of pesticide ([1]; chlorpyrifos oxon 5 · 10^−10 M): 27.09%
- % of inhibition in the presence of pesticide ([1]; chlorpyrifos oxon 9 · 10^−10 M): 44.54%
- % of inhibition in the presence of pesticide ([2]; chlorpyrifos oxon 1 · 10^−9 M): 41.71%
- % of inhibition in the presence of pesticide ([2]; chlorpyrifos oxon 3 · 10^−9 M): 61.15%
- % of inhibition in the presence of pesticide ([2]; chlorpyrifos oxon 3 · 10^−10 M): 10% and 10.09%
- % of inhibition in the presence of pesticide ([2]; chlorpyrifos oxon 4 · 10^−10 M): 15.31%
- % of inhibition in the presence of pesticide ([2]; chlorpyrifos oxon 5 · 10^−10 M): 22.19%
- % of inhibition in the presence of pesticide ([2]; chlorpyrifos oxon 9 · 10^−10 M): 39.75%
- % of inhibition in the presence of pesticide ([3]; chlorpyrifos oxon 1 · 10^−9 M): 49.50%
- % of inhibition in the presence of pesticide ([3]; chlorpyrifos oxon 2 · 10^−10 M): 8% and 8.28%
- % of inhibition in the presence of pesticide ([3]; chlorpyrifos oxon 3 · 10^−9 M): 72.23%
- % of inhibition in the presence of pesticide ([3]; chlorpyrifos oxon 3 · 10^−10 M): 19.14%
- % of inhibition in the presence of pesticide ([3]; chlorpyrifos oxon 4 · 10^−10 M): 24.51%
- % of inhibition in the presence of pesticide ([3]; chlorpyrifos oxon 5 · 10^−10 M): 30.10%
- % of inhibition in the presence of pesticide ([3]; chlorpyrifos oxon 9 · 10^−10 M): 47.55%
- % of inhibition in the presence of pesticide ([4]; chlorpyrifos oxon 1 · 10^−9 M): 52.36%
- % of inhibition in the presence of pesticide ([4]; chlorpyrifos oxon 2 · 10^−10 M): 9.82%
- % of inhibition in the presence of pesticide ([4]; chlorpyrifos oxon 3 · 10^−9 M): 74.80%
- % of inhibition in the presence of pesticide ([4]; chlorpyrifos oxon 3 · 10^−10 M): 10.70%
- % of inhibition in the presence of pesticide ([4]; chlorpyrifos oxon 4 · 10^−10 M): 32.51%
- % of inhibition in the presence of pesticide ([4]; chlorpyrifos oxon 5 · 10^−10 M): 31.46%
- % of inhibition in the presence of pesticide ([4]; chlorpyrifos oxon 9 · 10^−10 M): 49.18%

Reference: patent publication US20120181173A1, “ELECT[…] FOR THE DETECTION OF ANALYTES IN LIQUID MEDIA” (priority 2009, published 2012)
